Test results as given in paper PMC7440915, “Discovery of surrogate agonists for visceral fat Treg cells that modulate metabolic indices in vivo” (eLife, 2020).
Where no end group is shown, it is not given here.

Assays:
[1] = system: vTreg53 TCR (transduced Jurkat T cells); assay: CD69/CD25 up-regulation on vTreg53 TCR transduced Jurkat T cells with peptide-pulsed K562-A^b cells; format: cell-based, Homo sapiens (cells); murine TCR
Experimental: (§1) Figure 3. Identification of robust vTreg53 TCR agonists. Single-point mutants based on the Fat7 (A) or Fat15 (B) peptides were used to stimulate Fat-TCR transduced Jurkat T cells. Data shown are mean fluorescence intensity for CD69 up-regulation following overnight stimulation with the indicated peptides at 100 µM. (C) Potent SPs based on Fat15. Single-residue mutations from the Fat15 are shown in red. Anchor positions are shown in grey and potential TCR-facing positions are shown in green. A peptide titration of single- and double-point mutants from the Fat15 SP show up to ~4- (D; CD69) or ~8 fold (E; CD25) increase in Emax. (F) Surface plasmon resonance for Fat7, Fat15, Fat1562 and Fat2564 was used to determine the pMHC/Fat TCR affinity. All biotinylated pMHC were purified by SEC and immobilized in a streptavidin-coated SPR sensor chip from 200 up to 600 RU. Data are mean ± SD from n = 2 (A, D, E) or 3 (B) biological replicates from 1 representative of 3 independent experiments. Data shown in (F) is representative of 2 independent experiments. Figure 3—figure supplement 1. In vitro peptide stimulation of the vTreg53 TCR cells. (A) Expression of wild-type Ab MHC in stably transduced K562 cells. (B) Expression of vTreg53 TCR in stably transduced Jurkat T cells (TCRαβ-/-). (C) Fraction of CD25+/CD69+ cells following overnight stimulation with Fat mimotopes at the indicated concentrations. (D) Peptide-A^b - streptavidin PE (pAb -SAPE) titration of vTreg53 transduced Jurkat T cells. Cells were stained with 250 nM of pA^b-SAPE tetramer for 1 hr.
Cell lines were kept in a humidified incubator at 37°C with 5% CO2 unless otherwise denoted. Jurkat T cells (derived from acute T cell leukemia ATCC TIB-152) and K562 cells (ATCC CCL-243) were cultured in RPMI supplemented with 2 mM glutamax (Invitrogen), 10% FBS (Sigma),10 mM HEPES pH 8.0 (ThermoFisher), 1 mM Sodium Pyruvate (Gibco) and 50 U/ml penicillin and streptomycin (ThermoFisher). Validation of T cell lines was performed by staining with known markers pre- and post- transfection or transduction. HEK293T (Lenti-X; Takara Bio USA, #632180) cells (female derived kidney cell line) were grown in DMEM complete media (ThermoFisher) supplemented with 10% FBS, 2 mM L-glutamine, and 50 U/ml of penicillin and streptomycin. Cells were tested for mycoplasma contamination using the MycoAlert Mycoplasma Detection kit (Lonza) and found to be mycoplasma-negative. For peptide assays, Jurkat T cells were rested overnight or for 2–3 hr in fresh RPMI complete. Cells were co-cultured for 16 to 48 hr with surrogate APCs: K562 transduced with A^b. After overnight incubation, cells were washed in MACS buffer and stained with anti-TCR, A^b, CD69 and CD25. EBY100 yeast cells were cultured in sterile filtered standard YPD (Bacto Peptone, glucose and yeast extract). Transformed yeast were grown in SDCAA (yeast nitrogen base, casamino acids -ADE, -URA, -TRP, D-glucose and buffered to pH 4.5 using sodium citrate and citric acid monohydrate) and induced in SGCAA where galactose replaces D-glucose. EBY100 cells are grown at 30°C when cultured in SDCAA, or at 20°C when cultured in SGCAA at atmospheric CO2 in an orbital shaker set to an agitation speed of 250 rpm.

vTreg53 (Fat) TCR = assay: Surface plasmon resonance, pMHC/Fat TCR affinity; format: binding, murine; conditions: 25°C
Experimental: as §1
High Five cells (Tni; Expression Systems) were grown in Insect X-press media (Lonza) or ESF 921 media (Expression Systems) with a final concentration of 10 mg/L of gentamicin sulfate (ThermoFisher) at 27°C at atmospheric CO2. SF9 cells are grown in SF900-III or -II serum-free media (ThermoFisher) with 10% FBS and final concentration 10 mg/L of gentamicin sulfate and 2 mM glutamax at 27°C at atmospheric CO2. P1 or P2 virus was used to infect volumes of 1–3 L of Hi5 cells at ∼2 × 10^6 cells/ml. Supernatant was harvested 2–3 days post-infection and spun down at 8000 rpm for 15 min. The supernatant containing expressed protein was treated to 100 mM Tris pH 8.0, 1 mM NiCl2, and 5 mM CaCl2 to precipitate contaminants. The supernatant and precipitate mixture was spun down at 8000 rpm for 20 min at 4°C to remove precipitate. The supernatant was incubated with Ni-NTA resin (QIAGEN) for >3 hr at room temperature. Ni-NTA beads were collected and washed in a Buchner funnel with 20 mM imidazole in 1 x HBS pH 7.2 and eluted with 200 mM imidazole in 1x HBS pH 7.2. Protein was concentrated in a 10 kDa filter (Millipore, UFC903024) to ~1 mL. When appropriate, protein was biotinylated with BirA ligase, 100 μM biotin, 40 mM Bicine pH 8.3, 10 mM ATP, and 10 mM Magnesium Acetate at 4°C overnight. All proteins were further purified by size-exclusion chromatography using Superdex Increase S200 or S75, as appropriate (GE Healthcare). All proteins for in vivo studies were cleared of endotoxin. Final endotoxin levels were determined using a chromogenic endotoxin quantitation kit (Thermo Fisher) and never greater than 1 Endotoxin Unit/mg of purified protein.
A GE Biacore T100 was used to measure the KD by equilibrium methods. Approximately 200 resonance units (RU) of human CD45, PD-1 or mouse PD-1 was captured on a SA-chip (GE Healthcare), including a reference channel of an unrelated protein. SPR runs were performed in HBS-P+ (GE Healthcare). All measurements were made with 2-fold serial dilutions using 45–60 s association (at 30 μl/min) followed by >240 s dissociation (30 μl/min) at 25°C. Regeneration was performed using HBS-P+, 2 M MgCl2 or 0.1 M Glycine, pH 3.1 for 15–20 s at 50 μl/min. Measurement of titrations at equilibrium were used to determine the KD using Biacore Analysis Software (GE Healthcare). All measurements were repeated twice.

TMYKNPRPVAATG [Fat15]
CD69 up-regulation ([1]; overnight stimulation, screen at 100 µM): able to up-regulate CD69 expression | EC50 ([1]; peptide titration, CD69 (Figure 3D), overnight, mean ± SD from n = 2 biological replicates, 1 representative of 3 experiments): 40.7 µM | Kd (vTreg53 (Fat) TCR; Biacore T100, biotinylated pMHC immobilized on SA chip 200 to 600 RU, HBS-P+, equilibrium, representative of 2 experiments): 32.8 µM | koff (vTreg53 (Fat) TCR; SPR): fast kon and koff | kon (vTreg53 (Fat) TCR; SPR): fast kon
